Test results: patent publication US8017611B2, “Pyridine and pyrazine derivatives -083” (AstraZeneca AB, priority 2007, dated 2011)

Target: T1, recombinant Axl tyrosine kinase (Homo sapiens, UniProt P30530)
T1 construct: encompassing amino acids 473 to 894 of Axl; GST (N); made in house; host or cells: SF126 insect cells
T1 sequence (P30530 473-894): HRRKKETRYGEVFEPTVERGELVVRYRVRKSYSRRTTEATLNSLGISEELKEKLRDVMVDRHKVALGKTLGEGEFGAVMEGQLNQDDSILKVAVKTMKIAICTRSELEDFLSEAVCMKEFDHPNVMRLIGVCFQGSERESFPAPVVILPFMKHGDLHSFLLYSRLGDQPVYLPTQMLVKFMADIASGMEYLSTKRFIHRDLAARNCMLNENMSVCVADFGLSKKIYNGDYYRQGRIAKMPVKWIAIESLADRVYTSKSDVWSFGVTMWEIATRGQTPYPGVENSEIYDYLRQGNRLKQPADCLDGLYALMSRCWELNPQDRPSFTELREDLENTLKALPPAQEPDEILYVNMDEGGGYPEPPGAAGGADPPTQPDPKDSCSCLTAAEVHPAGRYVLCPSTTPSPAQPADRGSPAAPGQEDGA
Assay: In vitro Axl kinase assay (AlphaScreen), Test (a)
Assay type: biochemical
Conditions: test compound at 1 μM; first value quoted

SMILES | % Axl tyrosine kinase inhibition at 1 μM concentration [%]
CN1CCN(C(=O)c2ccc(-c3cnc(N)c(-c4nc5cccnc5o4)c3)cc2)CC1 [Example 45A.49] | 96.1
CN(C)CCN1CCN(C(=O)c2ccc(-c3cnc(N)c(-c4nc5cccnc5o4)c3)cc2)CC1 [Example 45A.50] | 93.7
Nc1ncc(-c2ccc(C(=O)NCCN3CCOCC3)cc2)cc1-c1nc2cccnc2o1 [Example 45A.51] | 98.5
Nc1ncc(-c2ccc(C(=O)N3CCC(N4CCCCC4)CC3)cc2)cc1-c1nc2cccnc2o1 [Example 45A.52] | 94.3
Nc1ncc(-c2ccc(C(=O)NCCCn3ccnc3)cc2)cc1-c1nc2cccnc2o1 [Example 45A.53] | 98.8
CN(C)CCCN(C)C(=O)c1ccc(-c2cnc(N)c(-c3nc4cccnc4o3)c2)cc1 [Example 45A.54] | 97.8
Nc1ncc(-c2ccc(C(=O)NCCN3CCCC3)cc2)cc1-c1nc2cccnc2o1 [Example 45A.55] | 98.9
Nc1ncc(-c2ccc(C(=O)NCCN3CCCCC3)cc2)cc1-c1nc2cccnc2o1 [Example 45A.56] | 98.9
Nc1ncc(-c2ccc(C(=O)NCCCN3CCOCC3)cc2)cc1-c1nc2cccnc2o1 [Example 45A.57] | 96.9
CN1CCN(CCCNC(=O)c2ccc(-c3cnc(N)c(-c4nc5cccnc5o4)c3)cc2)CC1 [Example 45A.58] | 97.0
COCCN1CCN(C(=O)c2ccc(-c3cnc(N)c(-c4nc5cccnc5o4)c3)cc2)CC1 [Example 45A.59] | 88.8
Nc1ncc(-c2ccc(C(=O)N3CCN(Cc4ccccn4)CC3)cc2)cc1-c1nc2cccnc2o1 [Example 45A.60] | 98.1
Nc1ncc(-c2ccc(C(=O)N3CCN(Cc4cccnc4)CC3)cc2)cc1-c1nc2cccnc2o1 [Example 45A.61] | 95.1
Nc1ncc(-c2ccc(C(=O)N3CCN(Cc4ccncc4)CC3)cc2)cc1-c1nc2cccnc2o1 [Example 45A.62] | 97.3
Nc1ncc(-c2ccc(C(=O)N3CCC(N4CCCC4)CC3)cc2)cc1-c1nc2cccnc2o1 [Example 45A.63] | 99.1
Nc1ncc(-c2ccc(C(=O)N3CCC(N4CCOCC4)CC3)cc2)cc1-c1nc2cccnc2o1 [Example 45A.64] | 98.6
CN1CCCN(C(=O)c2ccc(-c3cnc(N)c(-c4nc5cccnc5o4)c3)cc2)CC1 [Example 45A.65] | 98.3
Nc1ncc(-c2ccc(C(=O)N3CCC[C@H]3CN3CCCC3)cc2)cc1-c1nc2cccnc2o1 [Example 45A.66] | 99.9
CN(C)C(=O)CN1CCN(C(=O)c2ccc(-c3cnc(N)c(-c4nc5cccnc5o4)c3)cc2)CC1 [Example 45A.67] | 96.8
Nc1ncc(-c2ccc(C(=O)N3CCN(CCN4CCCC4)CC3)cc2)cc1-c1nc2cccnc2o1 [Example 45A.68] | 91.3

SMILES | % Axl tyrosine kinase inhibition at 1 μM concentration [%]
CN1CCC(NC(=O)c2ccc(-c3cnc(N)c(-c4nc5cccnc5o4)c3)cc2)CC1 [Example 45A.69] | 96.7
CN(CCN1CCCC1)C(=O)c1ccc(-c2cnc(N)c(-c3nc4cccnc4o3)c2)cc1 [Example 45A.70] | 98.8
NC(=O)CCN1CCN(C(=O)c2ccc(-c3cnc(N)c(-c4nc5cccnc5o4)c3)cc2)CC1 [Example 45A.71] | 93.7
CCN1CCCC1CNC(=O)c1ccc(-c2cnc(N)c(-c3nc4cccnc4o3)c2)cc1 (stereo not drawn) [Example 45A.72] | 99.6
CN1CCN(CCNC(=O)c2ccc(-c3cnc(N)c(-c4nc5cccnc5o4)c3)cc2)CC1 [Example 45A.73] | 96.0
Nc1ncc(-c2ccc(C(=O)N3CCN4CCCC4C3)cc2)cc1-c1nc2cccnc2o1 (stereo not drawn) [Example 45A.74] | 99.9
CN(C)C(=O)[C@@H]1CCCN1C(=O)c1ccc(-c2cnc(N)c(-c3nc4cccnc4o3)c2)cc1 [Example 45A.75] | 91.6
CN(C)[C@@H]1CCN(C(=O)c2ccc(-c3cnc(N)c(-c4nc5cccnc5o4)c3)cc2)C1 [Example 45A.76] | 96.7
CN(C)[C@H]1CCN(C(=O)c2ccc(-c3cnc(N)c(-c4nc5cccnc5o4)c3)cc2)C1 [Example 45A.77] | 96.1
NCC1CCN(C(=O)c2ccc(-c3cnc(N)c(-c4nc5cccnc5o4)c3)cc2)CC1 [Example 45A.78] | 97.7
Nc1ncc(-c2ccc(C(=O)N3CCC(N)C3)cc2)cc1-c1nc2cccnc2o1 (stereo not drawn) [Example 45A.79] | 99.0
CNC1CCN(C(=O)c2ccc(-c3cnc(N)c(-c4nc5cccnc5o4)c3)cc2)C1 (stereo not drawn) [Example 45A.80] | 99.7
CNCCCNC(=O)c1ccc(-c2cnc(N)c(-c3nc4cccnc4o3)c2)cc1 [Example 45A.81] | 99.6
Nc1ncc(-c2ccc(C(=O)N3CCCNCC3)cc2)cc1-c1nc2cccnc2o1 [Example 45A.82] | 98.4
Nc1ncc(-c2ccc(C(=O)NCCN3CCNCC3)cc2)cc1-c1nc2cccnc2o1 [Example 45A.83] | 98.9
Nc1ncc(-c2ccc(C(=O)NC3CCCNC3)cc2)cc1-c1nc2cccnc2o1 (stereo not drawn) [Example 45A.84] | 99.1
CNCCN(C)C(=O)c1ccc(-c2cnc(N)c(-c3nc4cccnc4o3)c2)cc1 [Example 45A.85] | 99.8
Nc1ncc(-c2ccc(C(=O)N3CCC(C4CCNCC4)CC3)cc2)cc1-c1nc2cccnc2o1 [Example 45A.86] | 95.8
Nc1ncc(-c2ccc(C(=O)N3CCC4(CCCNC4)CC3)cc2)cc1-c1nc2cccnc2o1 [Example 45A.87] | 77.4
Nc1ncc(-c2ccc(C(=O)N3CCC[C@H](N)C3)cc2)cc1-c1nc2cccnc2o1 [Example 45A.88] | 99.8

SMILES | % Axl tyrosine kinase inhibition at 1 μM concentration [%]
Nc1ncc(-c2ccc(C(=O)N3CCC4(CCNC4)CC3)cc2)cc1-c1nc2cccnc2o1 [Example 45A.89] | 91.7
Nc1ncc(-c2ccc(C(=O)NC[C@@H]3CCCN3)cc2)cc1-c1nc2cccnc2o1 [Example 45A.90] | 98.9
Nc1ncc(-c2ccc(C(=O)N3CCCC4(CCNCC4)C3)cc2)cc1-c1nc2cccnc2o1 [Example 45A.91] | 96.3
NCC[C@H]1CCCN(C(=O)c2ccc(-c3cnc(N)c(-c4nc5cccnc5o4)c3)cc2)C1 [Example 45A.92] | 99.7
Nc1ncc(-c2ccc(C(=O)NC[C@H]3CCCNC3)cc2)cc1-c1nc2cccnc2o1 [Example 45A.93] | 99.3
Nc1ncc(-c2ccc(C(=O)N3CC4CNCC4C3)cc2)cc1-c1nc2cccnc2o1 (stereo not drawn) [Example 45A.94] | 98.9
Nc1ncc(-c2ccc(C(=O)N3CCCC(N)CC3)cc2)cc1-c1nc2cccnc2o1 (stereo not drawn) [Example 45A.95] | 99.5
CN(C(=O)c1ccc(-c2cnc(N)c(-c3nc4cccnc4o3)c2)cc1)C1CCNCC1 [Example 45A.96] | 99.1
Nc1ncc(-c2ccc(C(=O)N3CCC(CN4CCNCC4)CC3)cc2)cc1-c1nc2cccnc2o1 [Example 45A.98] | 97.6
CNC1CCC(NC(=O)c2ccc(-c3cnc(N)c(-c4nc5cccnc5o4)c3)cc2)CC1 (stereo not drawn) [Example 45A.99] | 95.9
Nc1ncc(-c2ccc(C(=O)N3CCC4(CCNCC4)CC3)cc2)cc1-c1nc2cccnc2o1 [Example 45A.100] | 95.3
Nc1ncc(-c2ccc(C(=O)NCCCN3CCNCC3)cc2)cc1-c1nc2cccnc2o1 [Example 45A.101] | 99.1
Nc1ncc(-c2ccc(C(=O)NC3CCNCC3)cc2)cc1-c1nc2cccnc2o1 [Example 45A.103] | 97.3
Nc1ncc(-c2ccc(C(=O)NCC3CCCCN3)cc2)cc1-c1nc2cccnc2o1 (stereo not drawn) [Example 45A.104] | 99.8
Nc1ncc(-c2ccc(C(=O)N3CC(N)C3)cc2)cc1-c1nc2cccnc2o1 [Example 45A.105] | 98.4
Nc1ncc(-c2ccc(C(=O)NC3CCNC3)cc2)cc1-c1nc2cccnc2o1 (stereo not drawn) [Example 45A.106] | 98.4
Nc1ncc(-c2ccc(C(=O)N3CCC(N)CC3)cc2)cc1-c1nc2cccnc2o1 [Example 45A.107] | 95.0
CN(C)CCN(C)C(=O)c1ccc(-c2cnc(N)c(-c3nc4ncccc4o3)c2)cc1 [Example 45B.1] | 98.1
CN1CCN(C(=O)c2ccc(-c3cnc(N)c(-c4nc5ncccc5o4)c3)cc2)CC1 [Example 45B.2] | 96.1
Nc1ncc(-c2ccc(C(=O)NCCN3CCOCC3)cc2)cc1-c1nc2ncccc2o1 [Example 45B.3] | 97.7
